Measurements: patent publication US20240066027A1 (DOMAIN THERAPEUTICS, priority 2020, published 2024)
Where a name gives a salt, the structure may show the parent alone.

Target: T1, human PAR-2 (hPAR-2) receptor expressed in HEK-293 T cells in an endogenous manner (Homo sapiens, UniProt P55085)
T1 construct: human PAR-2 (hPAR-2) receptor expressed in HEK-293 T cells in an endogenous manner; endogenous in cells; host or cells: HEK-293 T cells
T1 sequence (P55085 26-397): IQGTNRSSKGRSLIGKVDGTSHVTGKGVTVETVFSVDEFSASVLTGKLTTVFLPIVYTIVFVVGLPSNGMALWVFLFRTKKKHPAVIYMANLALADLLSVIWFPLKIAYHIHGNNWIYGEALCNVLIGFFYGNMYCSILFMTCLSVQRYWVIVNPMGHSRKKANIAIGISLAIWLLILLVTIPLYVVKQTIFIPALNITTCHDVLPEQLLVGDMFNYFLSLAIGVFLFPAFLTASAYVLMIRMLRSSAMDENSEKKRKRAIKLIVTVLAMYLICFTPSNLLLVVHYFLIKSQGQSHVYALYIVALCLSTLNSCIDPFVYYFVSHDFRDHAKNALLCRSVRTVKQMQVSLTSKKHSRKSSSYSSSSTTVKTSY
Assay: In vitro human PAR-2 functional antagonist activity using calcium assays (Fluo4AM, FLIPR Tetra)
Type: cell-based
Conditions: HEK-293 T cells stimulated by an EC80 of the 2-Furoyl-LIGRLO-NH2 peptide after 10 min incubation with compound; 20 concentrations, duplicate, two independent experiments
Experimental: In vitro human PAR-2 functional antagonist activity using calcium assays
Examples of the present invention were tested successively for their agonist and antagonist activities on human PAR-2 (hPAR-2) receptor expressed in HEK-293 T cells in an endogenous manner. Compounds exert agonist activity if, by themselves in absence of the 2-Furoyl-LIGRLO-NH2 peptide (selective hPAR-2 agonist), they activate PAR-2; they exert antagonist activity if they decrease the action of the 2-Furoyl-LIGRLO-NH2 peptide on the receptor. The assay used to determine compound activity is based on calcium measurement.
Cell Culture: HEK-293 T cells were maintained in Dulbecco's Modified Eagle's Medium supplemented with 10% Foetal Calf Serum, 1% Penicillin/Streptomycin at 37° C./5% CO2. Flasks for tests (F75) are seeded with 6e+06 cells 24 h before the experiment at 37° C./5% CO2.
Calcium assay: Receptor activity was detected by changes in intracellular calcium measured using the fluorescent Ca^2+ sensitive dye, Fluo4AM (Molecular Probes).
The day of the assay, medium was replaced by assay buffer (HBSS 1× (Gibco 14175-053), Hepes 20 mM, MgSO4-7H2O 1 mM, Na2CO3 3.3 mM, CaCl2-2H2O 1.3 mM, 0.5% BSA, Probenecid 2.5 mM, 0.1 mg/mL Pluronic Acid) and complemented with 1 μM Fluo4AM and cells were incubated during 1:30 h at 37° C.
Cells were then detached, resuspended in assay buffer and seeded in 384 wells, transparent-flat bottom black walled plates (2e+04 cells per well). Plates were incubated at +22° C. for 20 min. Compounds stock solutions were prepared in 100% DMSO and dilutions in test buffer were carried out in polypropylene plates with a digital dispenser (D300e, Tecan). Compounds were added to the cells and intracellular Ca^2+ measurements were collected at the same time on FLIPR Tetra® (Molecular Devices) with specific filters (Exc: 470-495 nm/Em: 515-575 nm).
Agonist and antagonist activities of compounds were consecutively evaluated on the same cell plate. Agonist activity was first measured after 10 min incubation with the compound alone. Then, cells were stimulated by an EC80 of the 2-Furoyl-LIGRLO-NH2 peptide and fluorescence was recorded for an additional 5 min. EC80 of the 2-Furoyl-LIGRLO-NH2 peptide was the concentration giving 80% of the maximal 2-Furoyl-LIGRLO-NH2 response. Agonist activities are evaluated in comparison to basal signals evoked by assay buffer or maximal 2-Furoyl-LIGRLO-NH2 response. […] Antagonist activities are evaluated in comparison to basal signals evoked by assay buffer or EC80 of 2-Furoyl-LIGRLO-NH2 alone.

Compound | IC50 [nM]
CC1(C)C(=O)N(CC(N)=O)CCN1C(=O)c1ccc2c(-c3ccc(Cl)c(F)c3)cn(C(C)(C)C)c2n1 [Example 5, 2-(4-(1-(tert-butyl)-3-(4-chloro-3-fluorophenyl)-1H-pyrrolo[2,3-b]pyridine-6-carbonyl)-3,3-dimethyl-2-oxopiperazin-1-yl)acetamide] | < 20
COC(=O)CN1CCN(C(=O)c2ccc3c(-c4ccc(Cl)c(F)c4)cn(C(C)(C)C)c3n2)C(C)(C)C1=O [Example 3, methyl 2-(4-(1-(tert-butyl)-3-(4-chloro-3-fluorophenyl)-1H-pyrrolo[2,3-b]pyridine-6-carbonyl)-3,3-dimethyl-2-oxopiperazin-1-yl)acetate] | < 20
COc1ccc(Cn2cc(-c3ccc(Cl)c(F)c3)c3ccc(C(=O)N4CCNC(=O)C4(C)C)nc32)cc1 [Example 27, 4-(3-(4-chloro-3-fluorophenyl)-1-(4-methoxybenzyl)-1H-pyrrolo[2,3-b]pyridine-6-carbonyl)-3,3-dimethylpiperazin-2-one] | 20 to 10000
CC1(C)CN(C(=O)c2ccc3c(-c4ccc(Cl)c(F)c4)cn(C(C)(C)C)c3n2)CCC1C(N)=O (stereo not shown) [Example 23, 1-(1-(tert-butyl)-3-(4-chloro-3-fluorophenyl)-1H-pyrrolo[2,3-b]pyridine-6-carbonyl)-3,3-dimethylpiperidine-4-carboxamide] | 20 to 10000
CCOC(=O)c1ccc(N2CCN(C(=O)c3ccn4c(-c5ccc(Cl)cc5)nc(C(C)(C)C)c4n3)C(C)(C)C2)nc1 [Example 216, ethyl 6-(4-(8-(tert-butyl)-6-(4-chlorophenyl)imidazo[1,5-a]pyrimidine-2-carbonyl)-3,3-dimethylpiperazin-1-yl)nicotinate] | > 10000
CC(C)(C)n1cc(-c2ccc(Cl)c(F)c2)c2ccc(C(=O)N3CCCNC(=O)C3)nc21 [Example 17, 4-(1-(tert-butyl)-3-(4-chloro-3-fluorophenyl)-1H-pyrrolo[2,3-b]pyridine-6-carbonyl)-1,4-diazepan-2-one] | 20 to 10000
CC1(C)C(=O)NCCN1C(=O)c1ccc2c(n1)c(C1CCCC1)nn2-c1ccc(Cl)c(F)c1 [Example 76, 4-(1-(4-chloro-3-fluorophenyl)-3-cyclopentyl-1H-pyrazolo[4,3-b]pyridine-5-carbonyl)-3,3-dimethylpiperazin-2-one] | 20 to 10000
CN1C(=O)N(C)C2(CCN(C(=O)c3ccc4c(-c5ccc(Cl)c(F)c5)cn(C(C)(C)C)c4n3)CC2)C1=O [Example 197, 8-(1-(tert-butyl)-3-(4-chloro-3-fluorophenyl)-1H-pyrrolo[2,3-b]pyridine-6-carbonyl)-1,3-dimethyl-1,3,8-triazaspiro[4.5]decane-2,4-dione] | 20 to 10000
CC(C)Cn1cc(-c2ccc(Cl)c(F)c2)c2ccc(C(=O)N3CCNC(=O)C3(C)C)nc21 [Example 29, 4-(3-(4-chloro-3-fluorophenyl)-1-isobutyl-1H-pyrrolo[2,3-b]pyridine-6-carbonyl)-3,3-dimethylpiperazin-2-one] | < 20
CC(C)(C)c1nn(-c2ccc(Cl)c(F)c2)c2ccc(C(=O)N3CCNC(=O)C3(C)C)nc12 [Example 75] | 20 to 10000
COCC(C)(C)n1cc(-c2ccc(Cl)c(F)c2)c2ccc(C(=O)N3CCNC(=O)C3(C)C)nc21 [Example 151, 4-(3-(4-chloro-3-fluorophenyl)-1-(1-methoxy-2-methylpropan-2-yl)-1H-pyrrolo[2,3-b]pyridine-6-carbonyl)-3,3-dimethylpiperazin-2-one] | < 20
CC(=O)c1cn(-c2ccc(Cl)c(F)c2)c2ccc(C(=O)N3CCC(CC(=O)O)CC3)cc12 [Example 206, 2-(1-(3-acetyl-1-(4-chloro-3-fluorophenyl)-1H-indole-5-carbonyl)piperidin-4-yl)acetic acid] | > 10000
CC1(C)C(=O)NCCN1C(=O)c1ccc2c(-c3ccc(Cl)c(F)c3)cn(CCN3CCCC3=O)c2n1 [Example 41, 4-(3-(4-chloro-3-fluorophenyl)-1-(2-(2-oxopyrrolidin-1-yl)ethyl)-1H-pyrrolo[2,3-b]pyridine-6-carbonyl)-3,3-dimethylpiperazin-2-one] | 20 to 10000

The next lines start with the values.

IC50 [nM] | Compound
< 20 | Cc1cccnc1Cn1cc(-c2ccc(Cl)c(F)c2)c2ccc(C(=O)N3CCN(c4cc(C)c(C(=O)O)c(C)n4)CC3(C)C)nc21 [Example 193, 6-(4-(3-(4-chloro-3-fluorophenyl)-1-((3-methylpyridin-2-yl)methyl)-1H-pyrrolo[2,3-b]pyridine-6-carbonyl)-3,3-dimethylpiperazin-1-yl)-2,4-dimethylnicotinic acid hydrochloride]
< 20 | CN(C)C(=O)c1ccc(N2CCN(C(=O)c3ccc4c(-c5ccc(Cl)c(F)c5)cn(C(C)(C)C)c4n3)C(C)(C)C2)nc1 [Example 139, 6-(4-(1-(tert-butyl)-3-(4-chloro-3-fluorophenyl)-1H-pyrrolo[2,3-b]pyridine-6-carbonyl)-3,3-dimethylpiperazin-1-yl)-N,N-dimethylnicotinamide]
20 to 10000 | Cc1cc(N(C)C2CCN(C(=O)c3ccc4c(-c5ccc(Cl)c(F)c5)cn(C(C)(C)C)c4n3)CC2)nc(C)c1C(=O)O [Example 147, 6-((1-(1-(tert-butyl)-3-(4-chloro-3-fluorophenyl)-1H-pyrrolo[2,3-b]pyridine-6-carbonyl)piperidin-4-yl)(methyl)amino)-2,4-dimethyinicotinic acid]
20 to 10000 | Cc1cc(N2CCN(C(=O)c3ccc4c(-c5ccc(Cl)c(F)c5)cn(Cc5cccnc5)c4n3)C(C)(C)C2)nc(C)c1C(=O)O [Example 135, 6-(4-(3-(4-chloro-3-fluorophenyl)-1-(pyridin-3-ylmethyl)-1H-pyrrolo[2,3-b]pyridine-6-carbonyl)-3,3-dimethylpiperazin-1-yl)-2,4-dimethylnicotinic acid hydrochloride]
20 to 10000 | Cc1cc(N2CCCN(C(=O)c3ccc4c(-c5ccc(Cl)c(F)c5)cn(C(C)(C)C)c4n3)CC2)nc(C)c1C(=O)O [Example 127, 6-(4-(1-(tert-butyl)-3-(4-chloro-3-fluorophenyl)-1H-pyrrolo[2,3-b]pyridine-6-carbonyl)-1,4-diazepan-1-yl)-2,4-dimethylnicotinic acid]
20 to 10000 | CC1(C)C(=O)N(CC(=O)O)CCN1C(=O)c1ccc2c(-c3ccc(Cl)c(F)c3)cn(C(C)(C)C)c2n1 [Example 4, 2-(4-(1-(tert-butyl)-3-(4-chloro-3-fluorophenyl)-1H-pyrrolo[2,3-b]pyridine-6-carbonyl)-3,3-dimethyl-2-oxopiperazin-1-yl)acetic acid]
20 to 10000 | Cc1cc(N2CCN(C(=O)c3ccc4c(-c5ccc(Cl)c(F)c5)cn(C)c4n3)C(C)(C)C2)nc(C)c1C(=O)O [Example 122, 6-(4-(3-(4-chloro-3-fluorophenyl)-1-methyl-1H-pyrrolo[2,3-b]pyridine-6-carbonyl)-3,3-dimethylpiperazin-1-yl)-2,4-dimethylnicotinic acid hydrochloride]
< 20 | Cc1cc(N2CCN(C(=O)c3ccc4c(n3)c(C(C)(C)C)nn4-c3ccc(Cl)c(F)c3)C(C)(C)C2)nc(C)c1C(=O)O [Example 59, 6-(4-(3-(tert-butyl)-1-(4-chloro-3-fluorophenyl)-1H-pyrazolo[4,3-b]pyridine-5-carbonyl)-3,3-dimethylpiperazin-1-yl)-2,4-dimethylnicotinic acid]
20 to 10000 | Cc1cc(N2CCN(C(=O)c3ccc4c(-c5ccc(C(F)(F)F)nc5)cn(CC(C)C)c4n3)C(C)(C)C2)nc(C)c1C(=O)O [Example 170, 6-(4-(1-isobutyl-3-(6-(trifluoromethyl)pyridin-3-yl)-1H-pyrrolo[2,3-b]pyridine-6-carbonyl)-3,3-dimethylpiperazin-1-yl)-2,4-dimethylnicotinic acid]
